Laboratory results as given in US9309242B2, “Substituted pyrido[2,3-b]pyrazines as FGFR kinase inhibitors” (priority 2011, dated 2016).

Assays:
FGFR1 (h) = FGFR1 (h) (Homo sapiens, UniProt P11362); test: FGFR1 (enzymatic assay), TR-FRET; type: biochemical; settings: read-out: FGFR 1 pIC50 (converted)
FGFR2 (h) = FGFR2 (h) (Homo sapiens, UniProt P21802); test: FGFR2 (enzymatic assay), TR-FRET; type: biochemical; settings: enzymatic assay; read-out: FGFR 2 pIC50 (converted)
Procedure, shortened: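 At low ATP (0.4 μM), enzyme activity of human FGFR2 (150 ng/ml) toward biotinylated Flt3 substrate (500 nM) was followed with test compound present. Reactions ran in 50 mM HEPES pH 7.5, 6 mM MnCl2, 1 mM DTT, 0.1 mM Na3VO4, 0.01% Triton-X-100, 1% DMSO.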

FGFR3 (h) = FGFR3 (h) (Homo sapiens, UniProt P22607); test: FGFR3 (enzymatic assay), TR-FRET; type: biochemical; settings: read-out: FGFR 3 pIC50 (converted)
Source text: Time-Resolved Fluorescence Resonance Energy Transfer (TR-FRET) signal (ex340 nm.

FGFR4 (h) = FGFR4 (h) (Homo sapiens, UniProt P22455); test: FGFR4 (enzymatic assay), TR-FRET; type: biochemical; settings: FGFR 4 pIC50, enzymatic assay
[1] = biological target: T1, Ba/F3-FGFR1-transfected cells (Homo sapiens, UniProt P11362); test: Ba/F3-FGFR1 (minus IL3) cellular proliferation assay, Alamar Blue; type: cell-based
T1 construct: BAF3-FGFR1 (MIN IL3) pIC50; other: minus IL3
Procedure, shortened: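 Ba/F3-FGFR1 cells, 20000/well, RPMI-1640 + 10% FBS + 2 mM L-Gln; compound in DMSO; 24 h, 37 °C, 5% CO2; Alamar Blue 4 h; RFU ex 540/em 590.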

[2] = system: Ba/F3-FGFR1-transfected cells; test: Ba/F3-FGFR1 (plus IL3) cellular proliferation assay, counterscreen with 10 ng/ml murine IL3; type: cell-based; settings: plus IL3 (10 ng/ml murine IL3, counterscreen); read-out: BAF3-FGFR1 (PLUS IL3) pIC50 (converted)
Procedure, shortened: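 Proliferation read-out: resazurin-based Alamar Blue fluorescence (540/590 nm) after 4 h, following 24 h compound treatment of 20000 Ba/F3-FGFR1 cells per well in 10% FBS RPMI at 37° C. IL3 counterscreen used the same protocol plus 10 ng/ml murine IL3.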

[3] = biological target: T2, Ba/F3-FGFR3-transfected cells (Homo sapiens, UniProt P22607); test: Ba/F3-FGFR3 (minus IL3) cellular proliferation assay, Alamar Blue; type: cell-based
T2 construct: BAF3-FGFR3 (MIN IL3) pIC50; other: minus IL3
Procedure, shortened: (§1)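 FGFR3-Ba/F3, 20000 cells/well, RPMI-1640 + 10% FBS, no phenol red; cpd in DMSO; 24 h, 37° C/5% CO2. Alamar Blue 4 h, RFU ex540/em590. Counterscreen: + murine IL3 10 ng/ml.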

[4] = system: Ba/F3-FGFR3-transfected cells; test: Ba/F3-FGFR3 (plus IL3) cellular proliferation assay, counterscreen with 10 ng/ml murine IL3; type: cell-based; settings: plus IL3 (10 ng/ml murine IL3, counterscreen); read-out: BAF3-FGFR3 (PLUS IL3) pIC50 (converted)
Procedure, shortened: as §1

[5] = biological target: T3, Ba/F3-KDR-transfected cells (Homo sapiens, UniProt P35968); test: Ba/F3-KDR (minus IL3) cellular proliferation assay, Alamar Blue; type: cell-based
T3 construct: BAF3-KDR (MIN IL3) pIC50; other: minus IL3
Procedure, shortened: (§2)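 Compound in DMSO was dispensed first, then transfected cells in serum-containing RPMI-1640 were added. After a 24 h incubation, viability was gauged by resazurin reduction over 4 h, measured as fluorescence.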

[6] = system: Ba/F3-KDR-transfected cells; test: Ba/F3-KDR (plus IL3) cellular proliferation assay, counterscreen with 10 ng/ml murine IL3; type: cell-based; settings: plus IL3 (10 ng/ml murine IL3, counterscreen); read-out: BAF3-KDR (PLUS IL3) pIC50 (converted)
Procedure, shortened: as §2

FGFR4 (h), sequence (P22455 22-802): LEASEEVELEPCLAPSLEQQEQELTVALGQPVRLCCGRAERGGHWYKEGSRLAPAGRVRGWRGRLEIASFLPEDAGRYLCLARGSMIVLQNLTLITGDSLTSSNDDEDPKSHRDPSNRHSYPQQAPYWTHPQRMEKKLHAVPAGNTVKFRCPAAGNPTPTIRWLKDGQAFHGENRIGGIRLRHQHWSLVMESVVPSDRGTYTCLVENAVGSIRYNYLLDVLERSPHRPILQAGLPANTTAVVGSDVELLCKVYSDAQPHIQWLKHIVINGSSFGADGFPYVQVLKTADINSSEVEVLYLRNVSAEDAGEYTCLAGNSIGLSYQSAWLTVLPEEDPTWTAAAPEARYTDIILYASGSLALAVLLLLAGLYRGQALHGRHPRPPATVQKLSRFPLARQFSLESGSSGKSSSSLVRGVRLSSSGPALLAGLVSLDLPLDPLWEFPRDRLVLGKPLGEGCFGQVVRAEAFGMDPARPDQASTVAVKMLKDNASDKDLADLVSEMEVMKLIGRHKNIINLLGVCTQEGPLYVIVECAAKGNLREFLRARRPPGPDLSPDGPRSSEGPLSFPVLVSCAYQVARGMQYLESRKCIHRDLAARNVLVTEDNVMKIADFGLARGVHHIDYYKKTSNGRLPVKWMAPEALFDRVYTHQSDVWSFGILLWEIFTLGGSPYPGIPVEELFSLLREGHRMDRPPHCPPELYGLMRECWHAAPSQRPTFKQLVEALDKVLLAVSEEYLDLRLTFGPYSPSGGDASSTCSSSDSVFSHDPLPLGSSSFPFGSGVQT
T3 sequence (P35968 whole entry, change not shown): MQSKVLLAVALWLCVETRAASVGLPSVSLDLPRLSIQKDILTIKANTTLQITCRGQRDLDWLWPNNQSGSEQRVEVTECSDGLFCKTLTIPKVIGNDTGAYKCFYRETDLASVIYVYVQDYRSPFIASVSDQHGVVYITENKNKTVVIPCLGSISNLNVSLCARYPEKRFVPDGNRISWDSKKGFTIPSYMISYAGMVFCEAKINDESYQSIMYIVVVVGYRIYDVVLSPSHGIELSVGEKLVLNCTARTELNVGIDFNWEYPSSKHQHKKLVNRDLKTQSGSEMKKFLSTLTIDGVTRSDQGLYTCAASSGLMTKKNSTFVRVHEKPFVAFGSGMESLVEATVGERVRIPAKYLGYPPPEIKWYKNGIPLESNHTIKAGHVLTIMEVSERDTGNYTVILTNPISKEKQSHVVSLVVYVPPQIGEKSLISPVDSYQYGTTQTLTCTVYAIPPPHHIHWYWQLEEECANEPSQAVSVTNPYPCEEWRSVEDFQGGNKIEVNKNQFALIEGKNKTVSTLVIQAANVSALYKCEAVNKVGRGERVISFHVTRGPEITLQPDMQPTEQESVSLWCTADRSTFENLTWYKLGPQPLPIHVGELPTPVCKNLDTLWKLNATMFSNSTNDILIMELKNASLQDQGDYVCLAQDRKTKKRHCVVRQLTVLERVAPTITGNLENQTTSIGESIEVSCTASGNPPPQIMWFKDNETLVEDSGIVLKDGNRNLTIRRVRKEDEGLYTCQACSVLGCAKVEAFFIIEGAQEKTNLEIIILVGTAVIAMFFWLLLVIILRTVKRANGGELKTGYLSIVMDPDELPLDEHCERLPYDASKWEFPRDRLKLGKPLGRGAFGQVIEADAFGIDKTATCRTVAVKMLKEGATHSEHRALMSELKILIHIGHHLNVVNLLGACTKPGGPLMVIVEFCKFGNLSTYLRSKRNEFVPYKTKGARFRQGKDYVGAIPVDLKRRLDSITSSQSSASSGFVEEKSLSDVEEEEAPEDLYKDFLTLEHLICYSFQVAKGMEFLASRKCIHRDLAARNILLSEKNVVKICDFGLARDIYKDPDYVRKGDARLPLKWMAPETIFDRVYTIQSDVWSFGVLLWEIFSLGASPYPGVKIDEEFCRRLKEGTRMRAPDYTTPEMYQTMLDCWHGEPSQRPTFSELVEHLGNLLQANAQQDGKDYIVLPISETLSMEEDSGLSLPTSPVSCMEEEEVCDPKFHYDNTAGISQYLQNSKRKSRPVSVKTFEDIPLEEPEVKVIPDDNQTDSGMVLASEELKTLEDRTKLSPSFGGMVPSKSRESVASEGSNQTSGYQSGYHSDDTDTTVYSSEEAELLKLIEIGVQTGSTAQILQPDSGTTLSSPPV
FGFR3 (h), sequence (P22607 23-806): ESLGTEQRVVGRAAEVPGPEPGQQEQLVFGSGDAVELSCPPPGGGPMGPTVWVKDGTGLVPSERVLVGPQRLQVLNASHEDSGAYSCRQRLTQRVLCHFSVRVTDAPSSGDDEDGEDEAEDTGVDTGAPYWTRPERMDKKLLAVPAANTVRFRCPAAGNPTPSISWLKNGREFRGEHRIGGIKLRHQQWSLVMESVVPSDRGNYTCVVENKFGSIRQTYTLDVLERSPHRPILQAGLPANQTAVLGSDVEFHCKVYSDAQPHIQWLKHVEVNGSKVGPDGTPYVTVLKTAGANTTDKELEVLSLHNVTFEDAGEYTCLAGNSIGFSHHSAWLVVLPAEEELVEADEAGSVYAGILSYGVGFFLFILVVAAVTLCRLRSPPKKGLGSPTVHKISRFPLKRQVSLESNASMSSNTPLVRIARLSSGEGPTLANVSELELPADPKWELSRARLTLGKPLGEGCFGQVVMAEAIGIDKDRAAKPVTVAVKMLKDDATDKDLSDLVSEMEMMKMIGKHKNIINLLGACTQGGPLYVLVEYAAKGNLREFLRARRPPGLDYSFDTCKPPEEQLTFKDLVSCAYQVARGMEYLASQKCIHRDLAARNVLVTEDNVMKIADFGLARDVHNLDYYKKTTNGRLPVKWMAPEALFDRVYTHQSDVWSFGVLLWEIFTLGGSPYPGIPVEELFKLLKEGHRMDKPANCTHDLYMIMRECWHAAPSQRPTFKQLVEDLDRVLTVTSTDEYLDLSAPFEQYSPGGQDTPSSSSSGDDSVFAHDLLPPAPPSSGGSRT
FGFR1 (h), sequence (P11362 22-822): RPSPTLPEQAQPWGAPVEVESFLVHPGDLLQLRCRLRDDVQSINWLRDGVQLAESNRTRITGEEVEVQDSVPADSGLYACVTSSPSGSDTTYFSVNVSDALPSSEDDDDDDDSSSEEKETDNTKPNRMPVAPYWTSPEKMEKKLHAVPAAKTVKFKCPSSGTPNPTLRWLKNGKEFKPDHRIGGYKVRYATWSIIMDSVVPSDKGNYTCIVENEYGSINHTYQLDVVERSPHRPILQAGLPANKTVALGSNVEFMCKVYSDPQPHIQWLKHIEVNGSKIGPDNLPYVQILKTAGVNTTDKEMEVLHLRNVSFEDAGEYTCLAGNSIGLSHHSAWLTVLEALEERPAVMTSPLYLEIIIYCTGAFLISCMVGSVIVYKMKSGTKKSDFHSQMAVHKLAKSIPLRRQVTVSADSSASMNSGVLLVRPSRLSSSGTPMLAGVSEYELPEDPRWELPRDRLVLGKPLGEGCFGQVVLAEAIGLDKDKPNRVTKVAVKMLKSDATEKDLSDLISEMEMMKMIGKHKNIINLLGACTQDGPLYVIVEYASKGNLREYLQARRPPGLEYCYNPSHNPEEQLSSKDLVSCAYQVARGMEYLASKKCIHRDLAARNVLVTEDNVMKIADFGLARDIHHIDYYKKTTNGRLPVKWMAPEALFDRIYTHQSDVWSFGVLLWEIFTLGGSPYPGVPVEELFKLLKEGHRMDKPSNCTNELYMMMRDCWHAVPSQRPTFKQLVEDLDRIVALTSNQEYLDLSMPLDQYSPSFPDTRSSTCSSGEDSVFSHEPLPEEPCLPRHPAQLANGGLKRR
T2 sequence (P22607 whole entry, change not shown): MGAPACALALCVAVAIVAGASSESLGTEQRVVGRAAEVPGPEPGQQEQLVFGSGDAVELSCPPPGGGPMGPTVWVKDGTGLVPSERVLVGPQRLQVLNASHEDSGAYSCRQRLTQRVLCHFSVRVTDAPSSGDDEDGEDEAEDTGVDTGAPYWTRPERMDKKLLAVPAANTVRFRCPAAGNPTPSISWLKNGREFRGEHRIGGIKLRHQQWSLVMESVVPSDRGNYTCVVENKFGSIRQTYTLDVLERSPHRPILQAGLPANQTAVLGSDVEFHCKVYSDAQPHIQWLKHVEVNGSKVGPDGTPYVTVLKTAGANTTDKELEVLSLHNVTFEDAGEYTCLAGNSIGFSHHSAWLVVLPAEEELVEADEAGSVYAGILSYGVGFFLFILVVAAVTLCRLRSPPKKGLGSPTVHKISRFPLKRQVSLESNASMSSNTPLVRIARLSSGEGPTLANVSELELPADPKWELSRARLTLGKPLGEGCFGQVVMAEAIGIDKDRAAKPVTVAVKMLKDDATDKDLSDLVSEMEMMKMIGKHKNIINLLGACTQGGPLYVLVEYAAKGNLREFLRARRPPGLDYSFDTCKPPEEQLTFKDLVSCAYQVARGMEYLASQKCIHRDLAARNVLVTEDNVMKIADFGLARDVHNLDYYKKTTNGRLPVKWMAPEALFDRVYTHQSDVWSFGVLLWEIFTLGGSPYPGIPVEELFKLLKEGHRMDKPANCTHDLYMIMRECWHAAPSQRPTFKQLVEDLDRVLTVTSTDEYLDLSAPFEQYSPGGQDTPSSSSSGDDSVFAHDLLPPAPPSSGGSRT

Structure (SMILES) | IC50 (FGFR1 (h)) | IC50 (FGFR2 (h)) | IC50 (FGFR3 (h)) | IC50 (FGFR4 (h)) | BAF3-FGFR1 (MIN IL3) pIC50 [1] | IC50 [2] | BAF3-FGFR3 (MIN IL3) pIC50 [3] | IC50 [4] | BAF3-KDR (MIN IL3) pIC50 [5] | IC50 [6]
COc1cc(OC)c(F)c(N(CC(C)(C)O)c2ccc3ncc(-c4cnn(C)c4)nc3n2)c1 [Compound 245] | 3.63 nM | 4.47 nM | 3.31 nM | 15.8 nM | 6.86 | > 10000 nM | 7.07 | > 10000 nM | 5.33 | > 10000 nM
COc1cc(OC)c(C)c(N(Cc2ncc[nH]2)c2ccc3ncc(-c4cnn(C)c4)nc3n2)c1 [Compound 273] | 1.15 nM | 3.8 nM | 3.16 nM | 2.82 nM | 8.44 | > 10000 nM | ~8.60 | > 10000 nM | 6.44 | > 10000 nM
COc1cc(OC)c(F)c(N(CC(=O)N2CCNCC2)c2ccc3ncc(-c4cnn(C)c4)nc3n2)c1 [Compound 262] | 7.24 nM | 7.24 nM | 17.4 nM | 55 nM | 6.51 | > 10000 nM | ~6.17 | > 10000 nM | 5.06 | > 10000 nM
COc1cc(OC)cc(N(CCNC2COC2)c2ccc3ncc(-c4cnn(C)c4)nc3n2)c1 [Compound 290] | 3.55 nM | 4.47 nM | 4.47 nM | 12.9 nM | 7.09 | > 10000 nM | 7.06 | > 10000 nM | 5.81 | > 10000 nM
COc1cc(/N=c2\ccc3ncc(-c4cnn(C)c4)nc3n2CC(C)(C)O)cc(OC)c1 [Compound 277] | 0.871 nM | 2.09 nM | 1.07 nM | 4.68 nM | 6.91 | > 10000 nM | 7.16 | > 10000 nM | 5.49 | > 10000 nM
COc1cc(OC)cc(N(Cc2c[nH]nn2)c2ccc3ncc(-c4cnn(C)c4)nc3n2)c1 [Compound 251] | 1.32 nM | 1.41 nM | 0.661 nM | 2.69 nM | 6.99 | > 10000 nM | ~7.6 | > 10000 nM | 5.53 | > 10000 nM
COc1cc(OC)c(F)c(/N=c2\ccc3ncc(-c4cnn(C)c4)nc3n2CC2CC2)c1F (single isomer, unassigned) [Compound 267] | 0.977 nM | 4.27 nM | 2.4 nM | 1.48 nM | 7.98 | > 10000 nM | 8.16 | > 10000 nM | 6.37 | > 10000 nM
COc1cc(/N=c2\ccc3ncc(-c4cnn(C)c4)nc3n2CC(C)(C)O)c(F)c(OC)c1 [Compound 246] | 0.603 nM | 1.51 nM | 0.794 nM | 2.09 nM | 7.25 | > 10000 nM | 7.53 | > 10000 nM | 5.83 | > 10000 nM
COc1cc(/N=c2\ccc3ncc(-c4cnn(C)c4)nc3n2CC2CC(O)C(=O)N2)c(F)c(OC)c1 (stereo not shown) [Compound 270] | 0.776 nM | 2.09 nM | 1.1 nM | 2.29 nM | 7.12 | > 10000 nM | 7.00 | > 10000 nM | 5.56 | > 10000 nM
COc1cc(OC)c(F)c(N(Cc2noc(C)n2)c2ccc3ncc(-c4cnn(C)c4)nc3n2)c1 [Compound 297] | 0.794 nM | 1.78 nM | 1.7 nM | 3.02 nM | 7.70 | > 10000 nM | 7.69 | > 10000 nM | 6.08 | > 10000 nM
COc1cc(OC)c(F)c(/N=c2\ccc3ncc(-c4cnn(C)c4)nc3n2C)c1F (single isomer, unassigned) [Compound 255] | 0.214 nM | 0.776 nM | 0.363 nM | 0.513 nM | 7.93 | > 10000 nM | 8.38 | > 10000 nM | 6.22 | > 10000 nM
COc1cc(OC)c(F)c(N(Cc2ncc[nH]2)c2ccc3ncc(-c4cnn(CCS(C)(=O)=O)c4)nc3n2)c1 [Compound 264] | 0.55 nM | 1.86 nM | 1.41 nM | 1.38 nM | 7.66 | > 10000 nM | 8.09 | > 10000 nM | 5.58 | > 10000 nM
COc1cc(/N=c2\ccc3ncc(-c4cnn(C)c4)nc3n2CC2CCC(=O)N2CCO)c(F)c(OC)c1 (stereo not shown) [Compound 247] | 0.603 nM | 2.34 nM | 1.32 nM | 1.82 nM | 7.51 | > 10000 nM | ~7.7 | > 10000 nM | 5.63 | > 10000 nM
COc1cc(OC)c(F)c(N(CC2CCC(=O)N2)c2ccc3ncc(-c4cnn(CC(C)(C)O)c4)nc3n2)c1 (stereo not shown) [Compound 285] | 2.34 nM | 4.07 nM | 2.75 nM | 7.24 nM | 6.38 | > 10000 nM | 6.84 | > 10000 nM | 5.36 | > 10000 nM
COc1cc(OC)c(F)c(N(c2ccc3ncc(-c4cnn(C)c4)nc3n2)C(C)c2ncc[nH]2)c1 (stereo not shown) [Compound 287] | 0.851 nM | 3.09 nM | 2.14 nM | 2.14 nM | 8.87 | > 10000 nM | ~8.54 | > 10000 nM | 6.62 | > 10000 nM
COc1cc(OC)cc(N(CCS(C)(=O)=O)c2ccc3ncc(-c4cnn(CCS(C)(=O)=O)c4)nc3n2)c1 [Compound 275] | 5.89 nM | 3.47 nM | 3.39 nM | 12 nM | 5.64 | > 10000 nM | 5.80 | > 10000 nM | <5 | > 10000 nM
CNCCn1ccnc1CN(c1ccc2ncc(-c3cnn(C)c3)nc2n1)c1cc(OC)cc(OC)c1F [Compound 289] | 4.37 nM | 8.51 nM | 12.9 nM | 57.5 nM | 6.66 | > 10000 nM | 6.92 | > 10000 nM | 5.28 | > 10000 nM
CCn1/c(=N/c2c(F)c(OC)cc(OC)c2F)ccc2ncc(-c3cnn(C)c3)nc21 [Compound 257] | 0.331 nM | 1.35 nM | 0.692 nM | 0.457 nM | 8.58 | > 10000 nM | ~8.66 | > 10000 nM | 6.80 | > 10000 nM
COc1cc(OC)c(F)c(N(Cc2ncc[nH]2)c2ccc3ncc(N4C[C@@H](C)N[C@@H](C)C4)nc3n2)c1 [Compound 259] | 2.09 nM | 2.88 nM | 4.57 nM | 28.2 nM | 7.33 | > 10000 nM | 7.18 | > 10000 nM | 5.13 | > 10000 nM
